Experimental data taken from patent publication US20250017949A1, “METHODS AND COMPOSITIONS FOR SUPPRESSING AGING-ASSOCIATED CLONAL HEMATOPOIESIS” (The Jackson Laboratory, priority 2021, published 2025).
“Also recorded” adds a separate entry of the source.

What was measured:
Dnmt3a^R878H/+ cells = assay: Etanercept transplants (pan-TNFα blockade after competitive secondary transplant); type: in vivo, mouse
From the text: FIGS. 7A-7H: TNFR1 is required for Dnmt3a^R878H/+ HSC self-renewal while TNFR2 regulates lymphoid cell production. (FIG. 7A) Schematic of experimental design to test competitive, serial transplant of Mx-Cre control, Dnmt3a^R878H/+(R878H/+), Dnmt3a^R878H/+ Tnfrsf1a^−/− (R878H/+; TNFR1KO) and Dnmt3a^R878H/+ Tnfrsf1b^−/− (R878H/+; TNFR2KO) in aged (>12 mo) recipient mice. (FIG. 7B) Frequency of donor cells in PB (left) and BM (right) of recipient mice at 20 weeks post-secondary transplant. Significance was calculated using Brown-Forsythe and Welch ANOVA with Welch's correction. (FIG. 7C) Representative flow cytometry plots showing B cell and myeloid cell frequencies in donor derived PB. (FIG. 7D) Frequency of B cells (left), T cells (center) and myeloid cells (right) in donor derived PB at 20 weeks post-secondary transplant. Significance was calculated using one-way ANOVA with Tukey's multiple comparisons test. (FIG. 7E) Experimental schematic of transplant experiment with etanercept treatment. (FIG. 7F) Frequency of control or R878H/+ donor cells in PB pre- and post-etanercept treatment. Significance was calculated using two-way ANOVA with Fisher's LSD. (FIG. 7G) Frequency of control or R878H/+ donor cells in BM post-etanercept or vehicle treatment. Significance was calculated using two-way ANOVA with Fisher's LSD. (FIG. 7H) Frequency of HSC, MPP^Mk/E, MPP^G/M, and MPP^Ly populations in control or R878H/+ BM. Significance was calculated using two-way ANOVA with Fisher's LSD. (FIGS. 7B and 7D) Dots represent individual recipient mice, boxes show 25 to 75th percentile, line is median, whiskers show min to max. (FIG. 7F) Dots represent mean across biological replicates (n=4). (FIGS. 7G and 7H) Bars represent mean+/− SEM (n=4). *P<0.05, **P<0.01, ***P<0.001, ****P<0.0001.
TNFα signaling occurs through two distinct TNFα receptors, TNFR1 (Tnfrsf1a) and TNFR2 (Tnfrsf1b). Both TNFR1 and TNFR2 are expressed on HSC and MPP populations and are not altered in surface expression between control and Dnmt3a^R878H/+ mice (data not shown). To determine which of these receptors are responsible for TNFα-mediated selective advantage of Dnmt3a^R878H/+ HSCs and B lymphoid cell production, we crossed Dnmt3a^R878H/+ mice with Tnfrsf1a or Tnfrsf1b knockout mice (data not shown) and tested HSC function by competitive serial BM transplantation into aged recipients (FIG. 7A). […]
1×10^6 BM cells from 2-4-month-old Dnmt3a^+/+ Mx-Cre or Dnmt3a^fl-R878H/+ Mx-Cre donors were competitively transplanted with wild-type CD45.1+ CD45.2+ F1 BM cells in 2-4-month-old CD45.1+ lethally irradiated recipients. […] PB was monitored weekly and at 28 weeks post-transplant, bone marrow was harvested for analysis.

STAT3 = assay: Phosphorylation in HSPCs in response to recombinant OSM stimulation; type: cell-based, mouse; details: recombinant OSM stimulation for 30 minutes; FIG. 10G
From the text: (§1) FIGS. 10A-10G: OSM signaling is increased in Dnmt3a-mutant hematopoietic stem cells (HSCs) in an aged bone marrow microenvironment. (FIG. 10A) Experiment design. (FIG. 10B) Volcano plot of differentially expressed genes between Dnmt3a-mutant (R878H) vs. wild-type (+/+) HSCs in young recipients (left panel) and aged recipients (right panel). […] (FIG. 10C) Ingenuity Pathway Analysis prediction of upstream factors that would produce the differential gene expression pattern observed in aged recipients shown in FIG. 10B. (FIG. 10D) Gene set enrichment analysis of OSM signaling signature in Dnmt3a-mutant (R878H) vs. wild-type (+/+) HSCs specifically in aged recipient mice. (FIG. 10E) OSM levels in bone marrow fluid of young, middle-aged and old C57BL/6 wild-type mice assessed by ELISA. (FIG. 10F) Schematic of OSM-OSMR signaling pathway with differentially expressed genes in Dnmt3a-mutant vs. control HSCs colored in green (increased) or orange (decreased). (FIG. 10G) Phosphorylation of Stat3 (left panel) and Stat5 (right panel) in wild-type or Dnmt3a-mutant HSPCs in response to recombinant OSM stimulation for 30 minutes.
(§2) To determine which factor(s) might be elevated in the aged bone marrow microenvironment that would impact Dnmt3a-mutant HSPCs, donor-derived hematopoietic stem cells (HSCs) were re-isolated from the experiment shown in FIG. 9A (design shown in FIG. 10A). […]

STAT5 = assay: as above; type: cell-based, mouse; details: recombinant OSM stimulation for 30 minutes; FIG. 10G
From the text: as §1, §2

[1] = system: Dnmt3a-mutant HSCs vs wild-type HSCs; assay: Mixed HSC culture with or without recombinant OSM, then transplant and engraftment; type: in vivo, mouse; details: then transplant, FIGS. 11B-11C
From the text: (FIG. 11A) Experiment design. Contribution of wild-type (WT F1) and competitor Dnmt3a-mutant (R878H/+) cells to peripheral blood (FIG. 11B) and bone marrow (FIG. 11C) of recipient mice after culture with or without recombinant OSM.
Next, to determine if OSM stimulation has a differential functional effect on Dnmt3a-mutant vs. control HSCs, we established mixed cultures of purified control and Dnmt3a-mutant HSCs in culture conditions that promote HSC self-renewal and expansion. To test HSC function, we transplanted cells at the end of the culture period into recipient mice and measured their engraftment capacity (FIG. 11A). We find that in absence of OSM there is similar or equal engraftment of wild-type and Dnmt3a-mutant competitor cells in recipient mice (FIGS. 11B-11C). […] This finding supports that OSM is a major factor causing clonal hematopoiesis.

[2] = system: Dnmt3a-mutant (D3a) hematopoietic stem and progenitor cells; assay: Myeloid colony formation in media containing MitoQ or vehicle (DMSO); type: cell-based, mouse; details: in vitro, MitoQ vs vehicle (DMSO), FIG. 3
Protocol: (§3) Number of myeloid colonies produced from wild-type MxCre control or Dnmt3a-mutant (D3a) hematopoietic stem and progenitor cells in media containing MitoQ or vehicle (DMSO).
(§4) To evaluate the extent to which targeting defects in mitochondrial metabolism might improve wild-type HSC function and thus reduce the selective advantage of Dnmt3a-mutant HSCs, cells were treated with the mitochondrially targeted antioxidant mitoquinol (MitoQ) in vitro and in vivo. […] Treatment with MitoQ or other methods to improve mitochondrial metabolism are attractive targets to consider in the treatment of clonal hematopoiesis and prevention of leukemia.

[3] = system: wild-type MxCre control hematopoietic stem and progenitor cells; assay: as above; type: cell-based, mouse; details: in vitro, MitoQ vs vehicle (DMSO); FIG. 3
Protocol: as §3, §4

[4] = system: Dnmt3a-mutant (D3a) hematopoietic stem cells; assay: In vivo MitoQ treatment after transplant into aged recipient mice; set-up: species or system mouse; details: in vivo MitoQ vs vehicle (PBS) after transplant into aged recipient mice, FIG. 4
Protocol: Frequency of donor-derived cells produced from wild-type (MxCre) control or Dnmt3a-mutant (D3a) hematopoietic stem cells post-transplantation and in vivo treatment with MitoQ or vehicle (PBS).
as §4

[5] = etanercept 25 mg/kg IP twice per week for four weeks vs vehicle, FIG. 7H

## Etanercept
Dnmt3a^R878H/+ cells; etanercept 25 mg/kg IP twice per week for four weeks vs vehicle, FIG. 7G
  Frequency of R878H/+ donor cells in BM (BM engraftment): trended toward reduction in BM engraftment
Dnmt3a^R878H/+ cells; [5]
  Frequency of Dnmt3a^R878H/+ HSC, MPP^Mk/E and MPP^Ly populations in BM: reduced the frequency
  Frequency of Dnmt3a^R878H/+ myeloid-primed multipotent progenitors MPP^G/M in BM: trend toward increase
Dnmt3a^R878H/+ cells; etanercept 25 mg/kg IP twice per week for four weeks, pre- vs post-treatment, FIG. 7F
  Frequency of R878H/+ donor cells in PB (competitive PB advantage): reduced the competitive PB advantage

## OSM: recombinant pro-inflammatory cytokine Oncostatin M used to stimulate HSCs/HSPCs
STAT3
  Phosphorylation of STAT3 in Dnmt3a-mutant vs control HSPCs: greater phosphorylation of STAT3; also recorded: greater downstream Stat3 phosphorylation compared to control HSCs
STAT5
  Phosphorylation of STAT5 in HSPCs: phosphorylation of STAT5 was not seen
[1]
  Engraftment of Dnmt3a-mutant vs wild-type cells in peripheral blood and bone marrow of recipient mice: favors growth of Dnmt3a-mutant hematopoietic stem cells (HSCs); also recorded: greater multi-lineage engraftment capacity in recipient mice compared to OSM-treated wild-type HSCs
[1]; listed as recombinant OSM
  Engraftment of Dnmt3a-mutant vs wild-type cells in peripheral blood and bone marrow of recipient mice: entirely favors growth of Dnmt3a-mutant HSCs over wild-type cells

## mitoquinol
[2]
  Number of myeloid colonies / progeny produced from Dnmt3a-mutant cells: reduce number of progeny produced from Dnmt3a-mutant cells; also recorded: decreases myeloid differentiation of hematopoietic stem and progenitor cells in vitro
[2]; listed as MitoQ®
  Number of myeloid colonies / progeny produced from Dnmt3a-mutant cells: reduced myeloid differentiation of Dnmt3a-mutant HSCs
[3]
  Myeloid differentiation of wild-type control cells: did not impact differentiation of wild-type control cells
[4]
  Contribution of Dnmt3a-mutant cells to hematopoiesis (frequency of donor-derived cells): reduced contribution of Dnmt3a-mutant cells to hematopoiesis; also recorded: decreases contribution of Dnmt3a-mutant cells to mature hematopoiesis in vivo
[4]; listed as MitoQ®
  Contribution of Dnmt3a-mutant cells to hematopoiesis (frequency of donor-derived cells): impaired differentiation and mature cell production from Dnmt3a-mutant HSCs
